Laboratory results as given in US7306923B2, “Methods for identification, and compounds useful for the treatment of degenerative & inflammatory diseases” (Galapagos N.V., priority 2004, dated 2007).

Tests used:
[1] = tested on: MMP1 expression by synovial fibroblasts; assay: Inhibition of the response of SFs to supernatant of TNFα-triggered THP1 cells, MMP1 ELISA; type: cell-based, human; conditions: dexamethasone 100 nM, SB203580 5 μM, added 1 h before trigger with 2-fold diluted SN of TNFα-activated THP1 cells, 72 h
Procedure: A 384-well format ELISA for measurement of MMP1 is developed. Various primary antibodies are tested, as well as various ELISA protocols. The following protocol is developed and validated to measure MMP1 levels in SF supernatant in 384 well plates: white Lumitrac 600 384 well plates (Greiner) are coated with 2 μg/ml anti-MMP1 antibody MAB1346 (Chemicon). The antibody is diluted in buffer 40 (1.21 g Tris base (Sigma), 0.58 g NaCl (Calbiochem) and 5 ml 10% NaN3 (Sigma) in 1 L milliQ water and adjusted to pH 8.5). After overnight incubation at 4° C., plates are washed with PBS (80 g NaCl, 2 g KCl (Sigma), 11.5 g Na2HPO4.7H2O and 2 g KH2PO4 in 10 L milliQ; pH 7.4) and blocked with 100 μl/well Casein buffer (2% Casein (VWR International) in PBS). Next day, casein buffer is removed from ELISA plates and replaced by 50 μl/well EC buffer (4 g casein, 2.13 g Na2HPO4 (Sigma), 2 g bovine albumin (Sigma), 0.69 g NaH2PO4.H2O (Sigma), 0.5 g CHAPS (Roche), 23.3 g NaCl, 4 ml 0,5 M EDTA pH 8 (Invitrogen), 5 ml 10% NaN3 in 1 L milliQ and adjusted to pH 7.0). 0.25 mM DTT (Sigma) is added to the thawed samples plates. After removal of the EC buffer, 20 μl of sample is transferred to the ELISA plates. […] Readout is performed on the Luminoscan Ascent Luminometer (Labsystems) with an integration time of 200 msec or with an Envision reader (Perkin Elmer). […]

[2] = tested on: MMP1 expression by synovial fibroblasts; assay: MMP1 ELISA on SFs triggered with cytokines or supernatant of cytokine-treated THP1 cells; type: cell-based, human; conditions: each cytokine 25 ng/ml or THP1 supernatant 2-fold diluted, 72 h, 96 well plates
Procedure: A 384-well format ELISA for measurement of MMP1 is developed. Various primary antibodies are tested, as well as various ELISA protocols. The following protocol is developed and validated to measure MMP1 levels in SF supernatant in 384 well plates: white Lumitrac 600 384 well plates (Greiner) are coated with 2 μg/ml anti-MMP1 antibody MAB1346 (Chemicon). The antibody is diluted in buffer 40 (1.21 g Tris base (Sigma), 0.58 g NaCl (Calbiochem) and 5 ml 10% NaN3 (Sigma) in 1 L milliQ water and adjusted to pH 8.5). After overnight incubation at 4° C., plates are washed with PBS (80 g NaCl, 2 g KCl (Sigma), 11.5 g Na2HPO4.7H2O and 2 g KH2PO4 in 10 L milliQ; pH 7.4) and blocked with 100 μl/well Casein buffer (2% Casein (VWR International) in PBS). Next day, casein buffer is removed from ELISA plates and replaced by 50 μl/well EC buffer (4 g casein, 2.13 g Na2HPO4 (Sigma), 2 g bovine albumin (Sigma), 0.69 g NaH2PO4.H2O (Sigma), 0.5 g CHAPS (Roche), 23.3 g NaCl, 4 ml 0,5 M EDTA pH 8 (Invitrogen), 5 ml 10% NaN3 in 1 L milliQ and adjusted to pH 7.0). […] Readout is performed on the Luminoscan Ascent Luminometer (Labsystems) with an integration time of 200 msec or with an Envision reader (Perkin Elmer).
The increase of MMP1 expression by SFs upon treatment with cytokines relevant in the field of RA (TNFα, IL1β and OSM) or a combination thereof is monitored. […]

C[S+]([O-])c1ccc(-c2nc(-c3ccncc3)c(-c3ccc(F)cc3)[nH]2)cc1 (stereo not drawn) [SB203580]
MMP1 levels lower than control levels [1]: 3 fold

C[C@@H]1C[C@H]2[C@@H]3CCC4=CC(=O)C=C[C@]4(C)[C@@]3(F)[C@@H](O)C[C@]2(C)[C@@]1(O)C(=O)CO [dexamethasone]
MMP1 levels lower than control levels [1]: 4 fold

TNFα
increase (induction) of MMP1 expression by SFs [2]: ~3 fold
